Assay results taken from paper PMC10726481, “New Teixobactin Analogues with a Total Lactam Ring” (ACS Medicinal Chemistry Letters, 2023).
In brackets after ≈: the same amount, converted by molar mass. Bridge positions count the residues as written; N and C are the ends. Square brackets hold non-standard residues; d marks the D form. Peptide text beside a SMILES is read from it. d(aIle) = CC[C@H](C)[C@@H](N)C(=O)O; dNMeF = CN[C@H](Cc1ccccc1)C(=O)O; Nle = CCCC[C@H](N)C(=O)O; dDap = NC[C@@H](N)C(=O)O

Key:
[1] = test system: C. glabrata ATCC 15126; test: microbe, parasite or virus in culture; assay type: cell-based; details: for MIC C. glabrata ATCC 15126: ATCC 15126, 24 h
Description: (§1) . The minimum inhibitory concentrations (MICs) of synthesized compounds were assessed according to the broth microdilution method using 96-well plates, in reference to the protocol of the Clinical and Laboratory Standards Institute (CLSI).[32],[33] In assays, reference strains of the bacteria S. aureus ATCC 25923, S. epidermidis ATCC 14990, and E. coli ATCC 25922 and the fungus C. glabrata ATCC 15126 were used, all from The Polish Collection of Microorganism, Polish Academy of Sciences, Wrocław, Poland. Bacteria at initial inoculums of 0.5 × 10^5 CFU/mL in Mueller–Hinton Broth (MHB), and fungus at initial inoculums of 2 × 10^3 CFU/mL in RPMI-1640, were exposed to the serial dilution of compounds. Tested concentrations were in the range 1–512 μg/mL. 96-well plates with microorganisms and tested substances were incubated at 37 °C for 18 h for bacteria and for 24 h for C. glabrata. The MIC values were taken as the lowest concentrations at which visible growth of microorganisms was inhibited. The minimum inhibitory concentrations (MICs) for MRSA ATCC 33591 were tested at the University of Liverpool. Bacterial cultures were grown overnight in Mueller–Hinton Agar (MHA) plates and adjusted to a final concentration of 10^5–10^6 CFU/mL. 100 μL of inoculum in Meuller–Hinton broth (MHB) was mixed with an equal volume of peptides (dissolved in MHB) at 2× their concentration in a 96-well plate. […] The final peptide concentrations ranged from 0.0625–32 μg/mL (the lower range 0.031–16 μg/mL was used). Positive and negative controls contained 200 μL of inoculum without any peptide dissolved in broth, respectively. The 96-well plates were then incubated at 37 °C for 24 h. All the experiments were performed in two independent duplicates, and the MIC was determined as the lowest concentration in which no visible growth was observed.

[2] = test system: E. coli ATCC 25922; test: microbe, parasite or virus in culture; assay type: cell-based; details: for MIC E. coli ATCC 25922: ATCC 25922, 18 h
Description: as §1

[3] = test system: S. aureus ATCC 25923; assay type: cell-based; details: ATCC 25923, 18 h
Description: (§2) . The minimum inhibitory concentrations (MICs) of synthesized compounds were assessed according to the broth microdilution method using 96-well plates, in reference to the protocol of the Clinical and Laboratory Standards Institute (CLSI).[32],[33] In assays, reference strains of the bacteria S. aureus ATCC 25923, S. epidermidis ATCC 14990, and E. coli ATCC 25922 and the fungus C. glabrata ATCC 15126 were used, all from The Polish Collection of Microorganism, Polish Academy of Sciences, Wrocław, Poland. Bacteria at initial inoculums of 0.5 × 10^5 CFU/mL in Mueller–Hinton Broth (MHB), and fungus at initial inoculums of 2 × 10^3 CFU/mL in RPMI-1640, were exposed to the serial dilution of compounds. Tested concentrations were in the range 1–512 μg/mL. 96-well plates with microorganisms and tested substances were incubated at 37 °C for 18 h for bacteria and for 24 h for C. glabrata. The MIC values were taken as the lowest concentrations at which visible growth of microorganisms was inhibited. The minimum inhibitory concentrations (MICs) for MRSA ATCC 33591 were tested at the University of Liverpool. Bacterial cultures were grown overnight in Mueller–Hinton Agar (MHA) plates and adjusted to a final concentration of 10^5–10^6 CFU/mL. 100 μL of inoculum in Meuller–Hinton broth (MHB) was mixed with an equal volume of peptides (dissolved in MHB) at 2× their concentration in a 96-well plate. […] Positive and negative controls contained 200 μL of inoculum without any peptide dissolved in broth, respectively. The 96-well plates were then incubated at 37 °C for 24 h. All the experiments were performed in two independent duplicates, and the MIC was determined as the lowest concentration in which no visible growth was observed.

[4] = test system: S. epidermidis ATCC 14990; assay type: cell-based; details: ATCC 14990, 18 h
Description: as §2

[5] = test system: MRSA ATCC 33591; assay type: cell-based, methicillin-resistant S. aureus; details: ATCC 33591, 24 h
Description: . The minimum inhibitory concentrations (MICs) of synthesized compounds were assessed according to the broth microdilution method using 96-well plates, in reference to the protocol of the Clinical and Laboratory Standards Institute (CLSI).[32],[33] In assays, reference strains of the bacteria S. aureus ATCC 25923, S. epidermidis ATCC 14990, and E. coli ATCC 25922 and the fungus C. glabrata ATCC 15126 were used, all from The Polish Collection of Microorganism, Polish Academy of Sciences, Wrocław, Poland. Bacteria at initial inoculums of 0.5 × 10^5 CFU/mL in Mueller–Hinton Broth (MHB), and fungus at initial inoculums of 2 × 10^3 CFU/mL in RPMI-1640, were exposed to the serial dilution of compounds. Tested concentrations were in the range 1–512 μg/mL. 96-well plates with microorganisms and tested substances were incubated at 37 °C for 18 h for bacteria and for 24 h for C. glabrata. The MIC values were taken as the lowest concentrations at which visible growth of microorganisms was inhibited. The minimum inhibitory concentrations (MICs) for MRSA ATCC 33591 were tested at the University of Liverpool. Bacterial cultures were grown overnight in Mueller–Hinton Agar (MHA) plates and adjusted to a final concentration of 10^5–10^6 CFU/mL. […] All the experiments were performed in two independent duplicates, and the MIC was determined as the lowest concentration in which no visible growth was observed.

[6] = test system: MRSA; details: compared with the 4 μg/mL of the analogues; strain not given, context MRSA; cited from earlier work
Description: To determine the antimicrobial activity of these analogues, the MIC test using the microdilution method was chosen. Analogues were tested on three different types of bacteria: Gram-positive S. aureus and S. epidermidis, Gram-negative E. coli and fungus C. glabrata (Table 1) including the MRSA ATCC 33591.

Row | Molecule | MIC ([1]; Nakaseomyces glabratus, ATCC15126, CLSI broth microdilution, 96-well plates, RPMI-1640, inoculum 2 × 10^3 CFU/mL, 37 °C for 24 h, tested 1–512 μg/mL, visible growth) [µg/mL] | MIC C. glabrata ATCC 15126 [1] [µg/mL] | MIC E. coli ATCC 25922 [2] [µg/mL] | MIC S. aureus ATCC 25923 [3] [µg/mL] | MIC S. epidermidis ATCC 14990 [4] [µg/mL] | MIC MRSA ATCC 33591 [5] [µg/mL] | MIC ([2]; Escherichia coli, ATCC25922, 18 h, read-out: MIC E. coli ATCC 25922) [µg/mL] | potency (MIC) of natural teixobactin [6] [µg/mL]
1 | CC(=O)N1CCN(c2ccc(OCC3COC(Cn4ccnc4)(c4ccc(Cl)cc4Cl)O3)cc2)CC1 (stereo not drawn) [Ketoconazole, ketoconazole, reference compound] | 0.62 (≈ 1.17 µM) |  |  |  |  |  |  | 
2 | CC[C@H](C)[C@@H]1NC(=O)[C@H](CCCNC(=N)N)NC(=O)[C@H](C)NC(=O)[C@H](NC(=O)[C@H](CO)NC(=O)[C@@H](NC(=O)[C@H](NC(=O)[C@@H](CCC(N)=O)NC(=O)[C@H](CO)NC(=O)[C@@H](NC(=O)[C@@H](Cc2ccccc2)NC)[C@@H](C)CC)[C@@H](C)CC)[C@@H](C)CC)CNC1=O [TXGS-1, D-Dap8,Arg10-teixobactin, reference compound] |  | >512 | >512 | 32 (≈ 26 µM) | 256 (≈ 208 µM) |  |  | 
3 | CC[C@H](C)[C@H](NC(=O)[C@H](N)Cc1ccccc1)C(=O)N[C@@H](CO)C(=O)N[C@H](CCC(N)=O)C(=O)N[C@@H](C(=O)N[C@H](C(=O)N[C@@H](CO)C(=O)N[C@@H]1CNC(=O)[C@H]([C@@H](C)CC)NC(=O)[C@H](CCCNC(=N)N)NC(=O)[C@H](C)NC1=O)[C@@H](C)CC)[C@@H](C)CC [TXGS-2] |  | >512 | >512 | 32 (≈ 26.3 µM) | 128 (≈ 105 µM) |  |  | 
4 | CCCC[C@@H]1NC(=O)[C@H](CCCNC(=N)N)NC(=O)[C@H](C)NC(=O)[C@H](NC(=O)[C@H](CO)NC(=O)[C@@H](NC(=O)[C@H](NC(=O)[C@@H](CCC(N)=O)NC(=O)[C@H](CO)NC(=O)[C@@H](NC(=O)[C@@H](Cc2ccccc2)NC)[C@@H](C)CC)[C@@H](C)CC)[C@@H](C)CC)CNC1=O [TXGS-3] |  | >512 | >512 | 4 (≈ 3.25 µM) | 64 (≈ 52.1 µM) | 4 (≈ 3.25 µM) |  | 
5 | CC[C@H](C)[C@@H]1NC(=O)[C@H](CCCNC(=N)N)NC(=O)[C@H](C)NC(=O)[C@H](NC(=O)[C@H](CO)NC(=O)[C@@H](NC(=O)[C@H](NC(=O)[C@@H](CCCNC(=N)N)NC(=O)[C@H](CO)NC(=O)[C@@H](NC(=O)[C@@H](Cc2ccccc2)NC)[C@@H](C)CC)[C@@H](C)CC)[C@@H](C)CC)CNC1=O [TXGS-5] (H-[dNMeF]IS[dR][d(aIle)]IS[dDap]ARI; lactam 8-C) |  | 512 (≈ 407 µM) | 256 (≈ 204 µM) | 256 (≈ 204 µM) | 256 (≈ 204 µM) |  |  | 
6 | CC[C@H](C)[C@H](NC(=O)[C@H](N)Cc1ccccc1)C(=O)N[C@@H](CO)C(=O)N[C@H](CCCNC(=N)N)C(=O)N[C@@H](C(=O)N[C@H](C(=O)N[C@@H](CO)C(=O)N[C@@H]1CNC(=O)[C@H]([C@@H](C)CC)NC(=O)[C@H](CCCNC(=N)N)NC(=O)[C@H](C)NC1=O)[C@@H](C)CC)[C@@H](C)CC [TXGS-6] |  | >512 | >512 | 64 (≈ 51.5 µM) | 64 (≈ 51.5 µM) |  |  | 
7 | CCCC[C@@H]1NC(=O)[C@H](CCCNC(=N)N)NC(=O)[C@H](C)NC(=O)[C@H](NC(=O)[C@H](CO)NC(=O)[C@@H](NC(=O)[C@H](NC(=O)[C@@H](CCCNC(=N)N)NC(=O)[C@H](CO)NC(=O)[C@@H](NC(=O)[C@@H](Cc2ccccc2)NC)[C@@H](C)CC)[C@@H](C)CC)[C@@H](C)CC)CNC1=O [TXGS-7] (H-[dNMeF]IS[dR][d(aIle)]IS[dDap]AR[Nle]; lactam 8-C) |  | 64 (≈ 50.9 µM) | 32 (≈ 25.4 µM) | 4 (≈ 3.18 µM) | 8 (≈ 6.36 µM) | 4 (≈ 3.18 µM) |  | 
8 | CCCC[C@@H]1NC(=O)[C@H](CCCNC(=N)N)NC(=O)[C@H](C)NC(=O)[C@H](NC(=O)[C@H](CO)NC(=O)[C@@H](NC(=O)[C@H](NC(=O)[C@@H](CCCNC(=N)N)NC(=O)[C@H](CO)NC(=O)[C@@H](NC(=O)[C@H](N)Cc2ccccc2)[C@@H](C)CC)[C@@H](C)CC)[C@@H](C)CC)CNC1=O [TXGS-8] (H-[dF]IS[dR][d(aIle)]IS[dDap]AR[Nle]; lactam 8-C) |  | 128 (≈ 103 µM) | 64 (≈ 51.5 µM) | 8 (≈ 6.43 µM) | 8 (≈ 6.43 µM) |  |  | 
9 | CN[C@H](CC(C)C)C(=O)N[C@H]1C(=O)N[C@@H](CC(N)=O)C(=O)N[C@H]2C(=O)N[C@H]3C(=O)N[C@H](C(=O)N[C@H](C(=O)O)c4cc(O)cc(O)c4-c4cc3ccc4O)[C@H](O)c3ccc(c(Cl)c3)Oc3cc2cc(c3O[C@@H]2O[C@H](CO)[C@@H](O)[C@H](O)[C@H]2O[C@H]2C[C@](C)(N)[C@H](O)[C@H](C)O2)Oc2ccc(cc2Cl)[C@H]1O [Vancomicin, vancomycin, reference compound] |  |  |  |  |  |  | > 64 | 
10 | teixobactin |  |  |  |  |  |  |  | 0.25
